ChEMBL document CHEMBL4800727 (2021)

Assays:
Conditions in all cases: Compound concentration 10.0 uM
[1] = molecular target: Serine/threonine-protein kinase D2 (Homo sapiens) (UniProt Q9BZL6); assay: protein kinase D2 Millipore kinase panel
[2] = molecular target: Tyrosine-protein kinase ABL2 (Homo sapiens) (UniProt P42684); assay: v-abl Abelson murine leukemia viral oncogene homolog 2 Millipore kinase panel
[3] = molecular target: Prostacyclin receptor (Homo sapiens) (UniProt P43119); assay: hIP1 Cerep panel
Prostacyclin receptor (Homo sapiens), sequence (P43119 whole entry): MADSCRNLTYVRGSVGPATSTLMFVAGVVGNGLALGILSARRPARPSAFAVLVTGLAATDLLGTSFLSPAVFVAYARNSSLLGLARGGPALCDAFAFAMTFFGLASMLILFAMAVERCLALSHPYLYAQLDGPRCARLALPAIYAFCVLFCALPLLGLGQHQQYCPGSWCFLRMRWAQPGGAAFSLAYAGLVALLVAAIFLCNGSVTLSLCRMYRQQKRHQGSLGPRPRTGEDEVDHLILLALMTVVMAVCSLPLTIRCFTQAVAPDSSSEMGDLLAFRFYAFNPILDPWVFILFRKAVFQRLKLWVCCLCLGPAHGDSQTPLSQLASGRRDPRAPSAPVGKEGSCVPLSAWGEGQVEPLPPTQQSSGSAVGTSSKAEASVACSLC

Tyrosine-protein kinase ABL2 (Homo sapiens), sequence (P42684 whole entry): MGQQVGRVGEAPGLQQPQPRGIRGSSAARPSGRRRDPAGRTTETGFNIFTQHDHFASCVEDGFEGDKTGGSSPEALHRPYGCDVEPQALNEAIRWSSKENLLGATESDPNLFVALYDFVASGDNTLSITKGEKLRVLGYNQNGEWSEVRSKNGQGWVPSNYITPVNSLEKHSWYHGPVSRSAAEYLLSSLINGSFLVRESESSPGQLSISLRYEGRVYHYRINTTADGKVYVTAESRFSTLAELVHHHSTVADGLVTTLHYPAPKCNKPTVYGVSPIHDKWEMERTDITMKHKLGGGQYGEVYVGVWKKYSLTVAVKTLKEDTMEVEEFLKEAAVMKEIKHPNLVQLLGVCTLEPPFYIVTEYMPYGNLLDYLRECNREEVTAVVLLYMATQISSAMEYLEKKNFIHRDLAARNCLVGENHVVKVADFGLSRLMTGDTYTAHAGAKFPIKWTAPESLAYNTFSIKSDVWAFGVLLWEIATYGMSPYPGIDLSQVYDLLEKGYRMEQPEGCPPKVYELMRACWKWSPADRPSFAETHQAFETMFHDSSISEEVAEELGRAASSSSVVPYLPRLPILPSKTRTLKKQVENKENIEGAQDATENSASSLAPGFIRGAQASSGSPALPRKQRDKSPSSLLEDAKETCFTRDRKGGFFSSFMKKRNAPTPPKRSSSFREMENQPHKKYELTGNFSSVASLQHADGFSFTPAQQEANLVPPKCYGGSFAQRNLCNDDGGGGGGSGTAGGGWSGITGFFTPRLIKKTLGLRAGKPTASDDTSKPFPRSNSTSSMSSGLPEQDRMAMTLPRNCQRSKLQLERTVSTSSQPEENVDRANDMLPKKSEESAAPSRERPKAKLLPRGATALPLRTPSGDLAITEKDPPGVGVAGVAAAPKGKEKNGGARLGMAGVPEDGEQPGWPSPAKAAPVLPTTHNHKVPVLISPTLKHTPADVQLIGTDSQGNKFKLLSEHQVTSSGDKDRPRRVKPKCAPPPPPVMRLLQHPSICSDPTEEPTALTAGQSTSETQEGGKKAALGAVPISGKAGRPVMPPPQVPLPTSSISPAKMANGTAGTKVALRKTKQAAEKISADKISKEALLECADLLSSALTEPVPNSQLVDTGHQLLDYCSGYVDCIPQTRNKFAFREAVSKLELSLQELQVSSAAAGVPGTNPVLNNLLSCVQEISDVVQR
Serine/threonine-protein kinase D2 (Homo sapiens), sequence (Q9BZL6 whole entry): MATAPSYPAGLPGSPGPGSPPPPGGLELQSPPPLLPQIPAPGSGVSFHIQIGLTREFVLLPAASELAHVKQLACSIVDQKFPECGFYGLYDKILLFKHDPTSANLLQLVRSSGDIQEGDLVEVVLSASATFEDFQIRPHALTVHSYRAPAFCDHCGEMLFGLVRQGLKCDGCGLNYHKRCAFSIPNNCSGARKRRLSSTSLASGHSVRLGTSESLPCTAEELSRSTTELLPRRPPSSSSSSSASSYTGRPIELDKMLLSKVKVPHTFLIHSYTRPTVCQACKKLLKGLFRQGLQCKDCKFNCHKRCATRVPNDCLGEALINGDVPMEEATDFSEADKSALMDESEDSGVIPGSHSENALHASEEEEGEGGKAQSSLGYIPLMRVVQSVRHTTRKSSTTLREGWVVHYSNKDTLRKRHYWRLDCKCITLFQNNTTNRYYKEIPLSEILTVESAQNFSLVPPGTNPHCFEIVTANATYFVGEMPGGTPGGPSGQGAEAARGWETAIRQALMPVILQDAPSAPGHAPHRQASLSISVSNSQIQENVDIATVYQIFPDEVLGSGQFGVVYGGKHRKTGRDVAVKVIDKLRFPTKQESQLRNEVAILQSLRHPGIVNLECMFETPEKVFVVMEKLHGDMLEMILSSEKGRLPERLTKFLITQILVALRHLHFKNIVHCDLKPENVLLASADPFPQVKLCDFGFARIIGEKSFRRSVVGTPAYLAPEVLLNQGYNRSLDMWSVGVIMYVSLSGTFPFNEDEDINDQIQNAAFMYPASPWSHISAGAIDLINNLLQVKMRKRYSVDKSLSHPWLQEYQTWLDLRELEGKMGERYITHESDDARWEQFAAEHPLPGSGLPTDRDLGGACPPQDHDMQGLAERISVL

For COCCc1ccc(-c2c(C)nc3c(N4CCOCC4)ccnn23)cn1 [JNJ-42396302], the inhibition [1] was 2%, the inhibition [2] was 6% and the effect [3] was -23.4%.
